Reference: patent publication US20030207843A1, “Treatment of drug-resistant human immunodeficiency virus infection” (priority 1999, published 2003)

Key:
Format in all cases: cell-based
HIV-1LAI S117T/L214F = experiment: p24 reduction assay in MT-2 cells, S117T/L214F; conditions: Example 6; recombinant virus encoding S117T plus L214F
Experimental: (§1) Cells. MT-2 cells (AIDS Research and Reference Reagent Program, National Institute of Allergy and Infectious Diseases, National Institutes of Health) were maintained in RPMI 1640 supplemented with 10% fetal bovine serum (FBS; JRH Biosciences, Lenexa, Kans.), 10 mM HEPES buffer, 50 IU/ml penicillin and 50 μg/ml streptomycin.
(§2) Antiviral Susceptibility Assays. The antiviral activity of each compound was determined by inoculating MT-2 cells with HIV-1LAI at a multiplicity of infection (MOI) of 0.01 TCID50/cell, followed by incubation in the presence of three-fold serial drug dilutions (3 wells per dilution) (see Mellors, et. al., Antimicrob. Agents Chemother. 39:1087-1092). Five or seven days after infection, culture supernatants were harvested, lysed with 0.5% triton-X 100 and assayed for p24 antigen concentration using a commercial ELISA assay (DuPont, NEN Products, Wilmington, Del.). The antiviral activity of the compounds is expressed as the IC50, which is the concentration required to inhibit 50% of p24 antigen production. The fold-resistance of a test virus is calculated by dividing the IC50 of the test virus by the IC50 of the HIV-1LAI control virus.
(§3) Generation of Mutant Recombinant HIV-1. HIV-1 containing the desired mutations were generated by oligonucleotide directed mutagenesis (Altered Sites II, Promega) as previously described (Mellors, et. al., Molecular Pharm. 41:446-451). After mutagenesis, mutant RT was subcloned into the pxxHIV-1LAI cloning vector using the silent XmaI and XbaI restriction sites located at the 5′ and 3′ ends of RT. Clones were DNA sequenced to verify the presence of the desired mutation(s) and electroporated into MT-2 cells as described above to generate infectious mutant recombinant HIV-1.
Mutant RT was generated via oligonucleotide-directed mutagenesis and ligated into the pXXHIV-1LAI cloning vector. […]
(§4) Recombinant viruses containing the mutations selected by invention compounds were also evaluated for their susceptibility to AZT, as shown in Table 8.

[1] = tested on: HIV-1LAI (wild type, control); experiment: p24 reduction assay in MT-2 cells, wild type virus; conditions: Table 6; baseline virus HIV-1LAI passage 0; read-out: EC50
Experimental: as §1
Viruses. Stock virus was prepared by electroporating (BIO-RAD Gene Pulser®, Hercules, Calif.) MT-2 cells (1.3×10^7 cells) with 5-10 μg of plasmid DNA encoding a proviral clone of HIV-1LAI (see Nguyen, et. al., Antimicrob. Agents Chemother. 38:2409-2414, and Peden, et. al., Virology 185: 661-672.). At peak cytopathic effect (generally 5-7 days post-transfection), culture supernatants were harvested and stored at −80° C. Viral infectivity titers were determined in threefold endpoint dilution assays conducted in MT-2 cells (six wells per dilution). The 50% tissue culture infective dose (TCID50) was calculated using the Reed and Muench equation (see Reed, et. al., Am. J. Hyg. 27:493-496).
as §2, with “[…],” for “was determined by inoculating MT-2 cells with HIV-1LAI at a multiplicity of infection (MOI) of 0.01 TCID50/cell,”
Cultures of MT-2 cells infected with either wild type (xxLAI) or with the drug-resistant strains of HIV-1 listed above were treated with lipid analogs of PFA (B-PFA, MB-PFA, or EB-PFA). The μM concentration required to produce 50% inhibition of replication of the drug-resistant strain of HIV (EC50) was determined as shown in Table 1. Drug effects were measured by assaying p24 (a viral protein) in the culture medium.

[2] = tested on: HIV-1LAI selected with DB-PFA, passage 18 (S117T, L214F); experiment: Susceptibility of virus selected in vitro with DB-PFA
Experimental: as §2
Selection of Resistant Viruses. […] Viral cytopathic effects (CPE) were monitored daily. […] The passaged virus was monitored regularly for a reduction in susceptibility to the compounds by determining the EC50 relative to unpassaged HIV-1LAI (Mellors, et. al., Antimicrob. Agents Chemother. 39:1087-1092). […]

HIV-1LAI S117T = experiment: p24 reduction assay in MT-2 cells, S117T; conditions: Example 6, recombinant virus encoding S117T
Experimental: as §1, §2, §3
Mutant RT was generated via oligonucleotide-directed mutagenesis and ligated into the pXXHIV-1LAI cloning vector. Cloning was facilitated by the presence of two silent restriction sites at the 5′ and 3′ ends (Xma1 and Xba1, respectively) of pXXHIV-1LAI RT. Infectious mutant recombinant HIV-1 was generated by electroporating MT-2 cells with mutated pXXHIV-1LAI clones. The presence of the desired mutations was verified by DNA sequencing.
DNA sequencing identified two mutations in RT: S117T and L214F.
as §4

Question: What does the source list for “1-O-octadecyl-propanediol-3-PFA [DB-PFA]”?
Answer: Fold resistance (HIV-1LAI S117T/L214F): 9.7 fold; EC50 [1]: 0.83 µM; EC50 ([2]; Table 6, passage 18 (S117T, L214F)): 8.97 µM; Fold resist. ([2]; Table 6, passage 18, relative to passage 0): 10.8; Fold resistance (HIV-1LAI S117T): 10.0 fold; EC50 (HIV-1LAI S117T; read-out: EC50): 9 µM
